From US12344584B2, “KCNQ potentiators” (Eli Lilly and Company, priority 2019, dated 2025)

How the values were obtained:
[1] = target: T1, hKv7.2 and hKv7.3 (Kv7.2/7.3) (Homo sapiens, UniProt O43525+O43526); experiment: Modulation of Kv7.2/7.3 conductance, automated electrophysiology (IonWorks Barracuda, population patch clamp) in HEK293 cells; type: cell-based; set-up: Voltage Shift ([…]V0.5), Mean: unit not given here; details: for Maximal Shift (efficacy) / Slope / EC50: 4-parameter logistic fit of voltage shift data; for EC50: read-out: EC50 (potency of V0.5 shift)
T1 construct: host or cells: HEK293
Experimental: Modulation of Kv7.2/7.3 Conductance by Kv7 Potentiators in a Mammalian Expression System
The potency and efficacy of Kv7 potentiators is assessed by automated electrophysiology on the IonWorks Barracuda (Molecular Devices) platform using the population patch clamp mode of the instrument.
Cell Culture: HEK293 cells stably expressing hKv7.2 (under tetracycline induction) and hKv7.3 (Catalog #CT6147, Charles River) are used for these studies. Cells are maintained in a Dulbecco's modified Eagle's medium/nutrient mixture Ham's F-12 (Sigma-Aldrich) supplemented with 5% tetracycline-screened fetal bovine serum (Sigma-Aldrich), 15 mM HEPES, 500 μg/mL G418, 100 U/mL penicillin, 100 μg/mL streptomycin, […] L-glutamine, 100 μg/mL zeocin, and 5 μg/mL blasticidin. Expression of hKv7.2 is induced by addition of 1 μg/mL doxycycline 24 h prior to recordings.
Cells are cultured in Corning T-150 flasks to a confluence of 85%-95%. At the start of an experiment, cells are washed once with D-PBS without calcium and magnesium and then dissociated by incubating in 3 ml of 0.25% trypsin for 8 min at 37° C. Cells ware resuspended in media, triturated gently, and centrifuged for 4 min at 1,000 rpm. Cells are resuspended in external solution to a final concentration of 2.5-3.5M cells/mL.
Solutions: External solution w is composed of (in mM): 140 NaCl, 5 KCl, 2 CaCl2, 1 MgCl2, 10 HEPES, 10 Glucose, pH 7.4. Internal solution is composed of (in mM): 90 K-gluconate, 40 KCl, 3.2 EGTA, 3.2 MgCl2, 5 HEPES, pH 7.25. The membrane perforating agent amphotericin B is prepared daily as a 27 mg/mL stock solution in DMSO and then added to the internal solution to a final concentration of 0.1 mg/mL. Test article dilutions are prepared in 384-well plates from 10 mM DMSO stock solutions and diluted using acoustic dispensing (Labcyte ECHO®), such that final DMSO concentrations are 0.1%.
Electrophysiological Recordings: Resuspended cells are placed on the IONWORKS® BARRACUDA™ (IWB) instrument, external solution is added to a 384-well patch plate, and a hole test is performed to determine blocked wells and offset voltages. Cells are then added to the patch plate (9 μL per well) by the instrument. Two seal tests are performed prior to introducing the perforating agent amphotericin in the internal solution and allowing approximately 8 min to obtain electrical access, which is verified by a third seal test. The command voltage protocol consists of a family of 1 sec voltages steps from −80 mV to +40 mV from a holding potential of −80 mV and is applied prior to (baseline) and 6 min after test article addition.
Data Analysis: Data are acquired and leak subtracted using IWB software. Current amplitudes during the last 10 msec of each voltage step are averaged and exported. Further analysis is performed using Microsoft Excel and GraphPad Prism. Current amplitude is converted to conductance (G) by the following formula: G=I/(V−Ek) where I=current, V=step potential, Ek=potassium reversal potential (−84 mV). Conductance in the presence of test article is normalized to the baseline conductance at +40 mV for the same well. Conductance-voltage (G−V) curves are fitted with the Boltzmann equation y=Bottom+(Top−Bottom)/(1+EXP((Vm−V0.5/k)).
Fitting a 4-parameter logistic equation to the data may be used to determine the potency (EC50) and efficacy (maximal shift) for each test compound.

peripheral axons = experiment: Threshold tracking of peripheral nerve excitability in anesthetized rats; type: in vivo; details: rat, dosed 45 min after Example 1 at 30 mg/kg
Experimental: Threshold Tracking to Measure the Effects of Example 1 at 3.10 and 30 mg/kg IP on Peripheral Nerve Excitability
Threshold tracking is a non-invasive technique that allows measurement of the excitability properties of peripheral axons by providing information about their membrane potential and ion channel function.
16 male Wistar rats from Charles River, weighing between 307-446 g ware used. Animals are group housed with standard housing conditions (4 per cage, 07:00 h to 19:00 h light phase, constant temperature (21° C.) and humidity, and free access to food and water, as well as environmental enrichment).
Rats are anesthetized with isoflurane (2-2.5%, O2 at 0.5 L/min) and then placed on their back on a heating pad to keep the tail temperature above 32° C. The placement of the ring electrodes are marked out and the marked sections of the tail are scraped with a blade to remove hair and the top layer of skin. The sites are cleaned with water and dried, allowing fora good conduction between the skin and the sticky electrodes.
A sticky ring stimulating electrode (+ve anode) is wrapped around the foot. A second sticky ring stimulating electrode (−ve cathode) is wrapped 1.5 cm from the base of the tail. A needle recording electrode is placed just off center on the top of the tail, 6 cm distal to the stimulating cathode at the base of the tail. A needle reference electrode is placed just off center on the top of the tail, 2 cm distal to the recording electrode. A sticky ground electrode is wrapped around the tail 2 cm proximal from the recording electrode.
• Start the Multitrack program (description below) and Spike. • Record 15 min of stable baseline • After the 15 min, dose with Example 1 or HEC • Take blood spot for PK at the following: • 10 min post dose • 20 min post dose • 30 min post dose • 40 min post dose • 45 min after IP (intraperitoneal) dosing with Example 1, dose XE-991 (XE-991 is a commercially available compound that blocks KCNQ potentiator effects in a formalin assay in vivo—see Y. Zheng, et al., “Activation of peripheral KCNQ channels relieves gout pain,” Pain, 156 (2015) 1025-1035; and R. Zaczek, et al., “Two New Potent Neurotransmitter Release Enhancers, 10,10-Bis(4-Pyridinylmethyl)-9(10H)-Anthracenone and 10,10-Bis(2-Fluoro-4-Pyridinylmethyl)-9(10H)-Anthracenone: Comparison to Linopirdine” The Journal of Pharmacology and Experimental Therapeutics, 285:724-730, 1998. • (XE-991 is only dosed after Example 1 at 30 mg/kg) • Take blood spot for PK at the following: • 10 min post dose (55 min post Example 1 administration) • 20 min post dose (65 min post Example 1 administration) • 30 min post dose (75 min post Example 1 administration) • 40 min post dose (85 min post Example 1 administration)
In threshold tracking assay to measure the excitability properties of peripheral axons studies in rat, compound is administered by IP at 3, 10 or 30 mg/kg using 1% hydroxyethylcellulose: 0.25% polysorbate 80:0.05% antifoam:purified water (HEC) formulation. Dry blood spots (DBS) are collected around 10, 20, 30 and terminal 40 min post-dose. DBS samples are dried at RT for around 2 h. Brain samples are obtained at terminal time point and frozen until analysis. DBS samples are shipped and stored at RT.

[2] = 10 μM, difference from control in voltage at half-maximal conductance

SMILES	Voltage Shift ([…]V0.5), Mean ([1]; 0.0005 μM)	Voltage Shift ([…]V0.5), Mean ([1]; 0.0015 μM)	Voltage Shift ([…]V0.5), Mean ([1]; 0.005 μM)	Voltage Shift ([…]V0.5), Mean ([1]; 0.01 μM)	Voltage Shift ([…]V0.5), Mean ([1]; 0.04 μM)	Voltage Shift ([…]V0.5), Mean ([1]; 0.12 μM)	Voltage Shift ([…]V0.5), Mean ([1]; 0.37 μM)	Voltage Shift ([…]V0.5), Mean ([1]; 1.11 μM)	Voltage Shift ([…]V0.5), Mean ([1]; 3.33 μM)	Voltage Shift ([…]V0.5), Mean [1, 2]	Maximal Shift (efficacy) [1]	Slope [1]	EC50 [1] [nM]	reversal of the Example 1 induced increase in absolute threshold (peripheral axons)
O=C(NCc1ccnc(OCC(F)(F)F)c1)NCC(O)C1(C(F)(F)F)CC1 (single isomer, unassigned) [Example 2, (+)-1-[2-hydroxy-2-[1-(trifluoromethyl)cyclopropyl]ethyl]-3-[[2-(2,2,2-trifluoroethoxy)-4-pyridyl]methyl]urea and (−)1-[2-hydroxy-2-[1-(trifluoromethyl)cyclopropyl]ethyl]-3-[[2-(2,2,2-trifluoroethoxy)-4-pyridyl]methyl]urea]	6.1	4.1	5.0	4.1	7.4	2.9	−1.9	−10.6	−23.0	−25.8	−28	1.3	1100	–
O=C(NCCC1(C(F)(F)F)CC1)NCc1ccnc(OCC(F)(F)F)c1 [Example 3, 1-[[2-(2,2,2-trifluoroethoxy)-4-pyridyl]methyl]-3-[2-[1-(trifluoromethyl)cyclopropyl]ethyl]urea]	3.9	0.1	1.9	−1.8	−4.4	−11.0	−19.6	−21.9	−23.9	−21.9	−23	1.1	100	–
O=C1c2ccccc2C(Cc2ccncc2)(Cc2ccncc2)c2ccccc21 [XE-991, reference compound]	–	–	–	–	–	–	–	–	–	–	–	–	–	able to reverse this increase
